Laboratory results as given in ChEMBL document CHEMBL1201862, “PubChem BioAssay data set” (2004).
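Cells were grown in 96-well plates and exposed to each compound for 48 hours at five concentrations; endpoints were interpolated linearly between bracketing concentrations, or set to the highest concentration if not reached. Abbreviation: GI50, concentration required for 50% inhibition of growth.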 The source made the active and inactive calls. No stated cut-off is given here; in the data, active = GI50 up to about 1.1 µM and inactive = higher.

Columns and labels:
Assay in all cases: NCI-60 cell line screen, 48 h
786-0 = tested on: 786-0
A498 = tested on: A498
A549 = tested on: A549
ACHN = tested on: ACHN
BT-549 = tested on: BT-549
CAKI-1 = tested on: CAKI-1
CCRF-CEM = tested on: CCRF-CEM
COLO 205 = tested on: COLO 205
DU-145 = tested on: DU-145
EKVX = tested on: EKVX
HCC 2998 = tested on: HCC 2998
HCT-116 = tested on: HCT-116
HCT-15 = tested on: HCT-15
HL-60 = tested on: HL-60
HOP-62 = tested on: HOP-62
HOP-92 = tested on: HOP-92
HT-29 = tested on: HT-29
Hs-578T = tested on: Hs-578T
IGROV-1 = tested on: IGROV-1
K562 = tested on: K562
KM12 = tested on: KM12
LOX IMVI = tested on: LOX IMVI
M14 = tested on: M14
MCF7 = tested on: MCF7
MDA-MB-231 = tested on: MDA-MB-231
MDA-MB-435 = tested on: MDA-MB-435
MDA-N = tested on: MDA-N
MOLT-4 = tested on: MOLT-4
Malme-3M = tested on: Malme-3M
NCI-H226 = tested on: NCI-H226
NCI-H23 = tested on: NCI-H23
NCI-H460 = tested on: NCI-H460
NCI-H522 = tested on: NCI-H522
NCI/ADR-RES = tested on: NCI/ADR-RES
OVCAR-3 = tested on: OVCAR-3
OVCAR-4 = tested on: OVCAR-4
OVCAR-5 = tested on: OVCAR-5
OVCAR-8 = tested on: OVCAR-8
PC-3 = tested on: PC-3
RPMI-8226 = tested on: RPMI-8226
RXF 393 = tested on: RXF 393
SF-268 = tested on: SF-268
SF-295 = tested on: SF-295
SF-539 = tested on: SF-539
SK-MEL-28 = tested on: SK-MEL-28
SK-MEL-5 = tested on: SK-MEL-5
SK-OV-3 = tested on: SK-OV-3
SN12C = tested on: SN12C
SNB-19 = tested on: SNB-19
SNB-75 = tested on: SNB-75
SR = tested on: SR
SW-620 = tested on: SW-620
T47D = tested on: T47D
TK-10 = tested on: TK-10
U-251 = tested on: U-251
UACC-257 = tested on: UACC-257
UACC-62 = tested on: UACC-62
UO-31 = tested on: UO-31
SK-MEL-2 = tested on: SK-MEL-2

O=C1c2ccccc2C(=O)c2c(NCC3CO3)ccc(NCC3CO3)c21 (stereo not drawn)
GI50 (786-0): 0.766 µM (active) | GI50 (A498): 33.3 µM (inactive) | GI50 (A549): 2.4 µM (inactive) | GI50 (ACHN): 0.303 µM (active) | GI50 (BT-549): 3.15 µM (inactive) | GI50 (CAKI-1): 0.687 µM (active) | GI50 (CCRF-CEM): < 0.01 µM (active) | GI50 (COLO 205): 4.99 µM (inactive) | GI50 (DU-145): 3.58 µM (inactive) | GI50 (EKVX): > 32.2 µM (inactive) | GI50 (HCC 2998): 9.1 µM (inactive) | GI50 (HCT-116): 0.171 µM (active) | GI50 (HCT-15): 3.47 µM | GI50 (HL-60): < 0.01 µM (active) | GI50 (HOP-62): 1.55 µM (inactive) | GI50 (HOP-92): 10.3 µM (inactive) | GI50 (HT-29): 1.88 µM (inactive) | GI50 (Hs-578T): 3.72 µM (inactive) | GI50 (IGROV-1): 3.78 µM (inactive) | GI50 (K562): 0.128 µM (active) | GI50 (KM12): 3.85 µM (inactive) | GI50 (LOX IMVI): 0.0132 µM (active) | GI50 (M14): 0.682 µM (active) | GI50 (MCF7): 0.112 µM (active) | GI50 (MDA-MB-231): 3.3 µM (inactive) | GI50 (MDA-MB-435): 1.22 µM (inactive) | GI50 (MDA-N): 1.3 µM (inactive) | GI50 (MOLT-4): 0.0119 µM (active) | GI50 (Malme-3M): 5.3 µM (inactive) | GI50 (NCI-H226): 8.59 µM (inactive) | GI50 (NCI-H23): 1.49 µM (inactive) | GI50 (NCI-H460): 2.39 µM (inactive) | GI50 (NCI-H522): 5.24 µM (inactive) | GI50 (NCI/ADR-RES): 1.6 µM (inactive) | GI50 (OVCAR-3): 4.54 µM (inactive) | GI50 (OVCAR-4): 10.9 µM (inactive) | GI50 (OVCAR-5): 4.54 µM (inactive) | GI50 (OVCAR-8): 0.63 µM (active) | GI50 (PC-3): 1.91 µM (inactive) | GI50 (RPMI-8226): 2.76 µM (inactive) | GI50 (RXF 393): 2.21 µM (inactive) | GI50 (SF-268): 0.254 µM (active) | GI50 (SF-295): 3.59 µM (inactive) | GI50 (SF-539): 1.91 µM (inactive) | GI50 (SK-MEL-28): 2.71 µM (inactive) | GI50 (SK-MEL-5): 1.68 µM (inactive) | GI50 (SK-OV-3): 10.4 µM (inactive) | GI50 (SN12C): 0.456 µM (active) | GI50 (SNB-19): 15.1 µM (inactive) | GI50 (SNB-75): 26.7 µM (inactive) | GI50 (SR): 0.0228 µM (active) | GI50 (SW-620): 1.22 µM (inactive) | GI50 (T47D): 4.2 µM (inactive) | GI50 (TK-10): 19 µM (inactive) | GI50 (U-251): 1.65 µM (inactive) | GI50 (UACC-257): 7.08 µM (inactive) | GI50 (UACC-62): 1.08 µM (active) | GI50 (UO-31): 1.87 µM (inactive)

Cc1cc(=O)[nH]c2cc(NC(=O)C(C)NC(=O)C(C)NC(=O)C(C)NC(=O)OC(C)(C)C)ccc12 (stereo not drawn)
GI50 (786-0): > 15 µM (inactive) | GI50 (A498): > 15 µM (inactive) | GI50 (A549): > 15 µM (inactive) | GI50 (ACHN): > 15 µM (inactive) | GI50 (BT-549): > 15 µM (inactive) | GI50 (CAKI-1): > 15 µM (inactive) | GI50 (CCRF-CEM): > 15 µM (inactive) | GI50 (COLO 205): > 15 µM (inactive) | GI50 (DU-145): > 15 µM (inactive) | GI50 (EKVX): > 15 µM (inactive) | GI50 (HCC 2998): > 15 µM (inactive) | GI50 (HCT-116): > 15 µM (inactive) | GI50 (HCT-15): > 15 µM | GI50 (HL-60): > 15 µM (inactive) | GI50 (HOP-62): > 15 µM (inactive) | GI50 (HOP-92): > 15 µM (inactive) | GI50 (HT-29): > 15 µM (inactive) | GI50 (Hs-578T): > 15 µM (inactive) | GI50 (IGROV-1): > 15 µM (inactive) | GI50 (K562): > 15 µM (inactive) | GI50 (KM12): > 15 µM (inactive) | GI50 (LOX IMVI): > 15 µM (inactive) | GI50 (M14): > 15 µM (inactive) | GI50 (MCF7): > 15 µM (inactive) | GI50 (MDA-MB-231): > 15 µM (inactive) | GI50 (MDA-MB-435): > 15 µM (inactive) | GI50 (MDA-N): > 15 µM (inactive) | GI50 (MOLT-4): > 15 µM (inactive) | GI50 (NCI-H226): > 15 µM (inactive) | GI50 (NCI-H23): > 15 µM (inactive) | GI50 (NCI-H460): > 15 µM (inactive) | GI50 (NCI-H522): > 15 µM (inactive) | GI50 (NCI/ADR-RES): > 15 µM (inactive) | GI50 (OVCAR-4): > 15 µM (inactive) | GI50 (OVCAR-5): > 15 µM (inactive) | GI50 (OVCAR-8): > 15 µM (inactive) | GI50 (PC-3): > 15 µM (inactive) | GI50 (RXF 393): > 15 µM (inactive) | GI50 (SF-268): > 15 µM (inactive) | GI50 (SF-295): > 15 µM (inactive) | GI50 (SF-539): > 15 µM (inactive) | GI50 (SK-MEL-28): > 15 µM (inactive) | GI50 (SK-MEL-2): > 15 µM (inactive) | GI50 (SK-MEL-5): > 15 µM (inactive) | GI50 (SN12C): > 15 µM (inactive) | GI50 (SNB-19): > 15 µM (inactive) | GI50 (SNB-75): > 15 µM (inactive) | GI50 (SR): > 15 µM (inactive) | GI50 (SW-620): > 15 µM (inactive) | GI50 (T47D): > 15 µM (inactive) | GI50 (TK-10): > 15 µM (inactive) | GI50 (U-251): > 15 µM (inactive) | GI50 (UACC-257): > 15 µM (inactive) | GI50 (UACC-62): > 15 µM (inactive) | GI50 (UO-31): > 15 µM (inactive)
